Data set [1] addresses T1, TspO (tryptophan-rich sensory protein) (Cereibacter sphaeroides, UniProt Q9RFC8).
T1 construct: C-terminal His6 tag, expressed in E. coli BL21(DE3), purified in DDM
T1 sequence (Q9RFC8 1-158): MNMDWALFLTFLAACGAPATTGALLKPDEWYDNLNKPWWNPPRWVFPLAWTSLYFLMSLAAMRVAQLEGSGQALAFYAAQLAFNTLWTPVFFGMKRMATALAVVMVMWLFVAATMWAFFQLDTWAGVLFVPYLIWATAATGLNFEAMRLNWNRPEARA
Description: intrinsic tryptophan fluorescence quenching titration, purified protein in DDM. Format: binding.

The data set “native gel or EMSA” deals with the molecule itself. Description: native gel or EMSA. On the technique in general: A gel shift assay detects complexes by their altered migration in electrophoresis.

Here are results for four molecules from PMC2911597, “Three-Dimensional Structure of TspO by Electron Cryomicroscopy of Helical Crystals” (Structure(London, England:1993), 2010).

Where two headings read alike, the source gives them in different places.

Usually Kd stands for the constant that tells how readily two partners part at equilibrium. As a reminder, the stoichiometry N is a count of units in the complex or per binding partner.

Take `CC1=C(CCC(=O)O)c2cc3[nH]c(cc4nc(cc5[nH]c(cc1n2)c(CCC(=O)O)c5C)C(C)=C4CCC(=O)O)c(CCC(=O)O)c3C` [cPPIII, coproporphyrin III]: the Kd in data set [1] (read-out: Kd) was 17.9 ± 1.7 µM. On to `C=CC1=C(C)c2cc3[nH]c(cc4nc(cc5[nH]c(cc1n2)c(C)c5CCC(=O)O)C(CCC(=O)O)=C4C)c(C)c3C=C` [PPIX, protoporphyrin IX], for which the Kd in data set [1] is 8.6 ± 0.6 µM. On the same count and under the same terms, in the case of `C=CC1=C(C)C2=Cc3c(C=C)c(C)c4[n]3[Fe]([Cl])[n]3c(c(C)c(CCC(=O)O)c3=CC3=NC(=C4)C(C)=C3CCC(=O)O)=CC1=N2` [hemin] it was 10 ± 2.5 µM.

B1: tryptophan-rich sensory protein (TspO) from Rhodobacter sphaeroides (natural protein, UniProt Q9RFC8 1-158, looked up)
chain: MNMDWALFLTFLAACGAPATTGALLKPDEWYDNLNKPWWNPPRWVFPLAWTSLYFLMSLAAMRVAQLEGSGQALAFYAAQLAFNTLWTPVFFGMKRMATALAVVMVMWLFVAATMWAFFQLDTWAGVLFVPYLIWATAATGLNFEAMRLNWNRPEARA
notes: also called rsTspO; TspO-His6; source: E. coli BL21(DE3), pET29, purified in DDM (NiNTA-agarose, gel filtration)
Regarding B1, the “stoichiometry N” value in “native gel or EMSA” was found to be 2.
